{
  "source": "patent US7157466B2",
  "about": "“Quinazoline ditosylate salt compounds” (SmithKline Beecham (Cork) Limited, priority 2000, dated 2007)",
  "key": {"[1]": {"tested_on": "head and neck (HN5) cell line", "assay": "Methylene blue growth inhibition assay, HN5", "type": "cell-based", "settings": "Homo sapiens, read-out: HN5 IC50 uM Cell", "method": "(§1) Human breast (BT474), head and neck (HN5) and gastric tumor (N87) cell lines and human foreskin Fibroblasts (HFF) were cultured in low glucose DMEM (Life Technologies 12320-032) containing 10% fetal bovine serum (FBS) at 37° C. in a humidified 10% CO2, 90% air incubator. The SV40 transformed human mammary epithelial cell line HB4a was transfected with either human H-ras cDNA (HB4a r4.2) or the human c-erbB2 cDNA (HB4a c5.2). The HB4a clones were cultured in RPMI containing 10% FBS, insulin (5 μg/ml), hydrocortisone (5 μg/ml), supplemented with the selection agent hygromycin B (50 μg/ml). Cells were harvested using trypsin/EDTA, counted using a haemocytometer, and plated in […] of the appropriate media, at the following densities, in a 96-well tissue culture plate (Falcon 3075): BT474 10,000 cells/well, HN5 3,000 cells/well, N87 10,000 cells/well, HB4a c5.2 3,000 cells/well, HB4a r4.2 3,000 cells/well, HFF 2500 cells/well. The next day, compounds were diluted in DMEM containing 100 mg/ml gentamicin, at twice the final required concentration, from 10 mM stock solutions in DMSO. 100 ml/well of these dilutions were added to the 100 ml of media currently on the cell plates. Medium containing 0.6% DMSO was added to control wells. Compounds diluted in DMEM were added to all cell lines, including the HB4a r4.2 and HB4a c5.2 cell lines. The final concentration of DMSO in all wells was 0.3%. Cells were incubated at 37° C., 10% CO2 for 3 days. Medium was removed by aspiration. Cell biomass was estimated by staining cells with 100 μl per well methylene blue (Sigma M9140, 0.5% in 50:50 ethanol:water), and incubation at room temperature for at least 30 minutes. Stain was removed, and the plates rinsed under a gentle stream of water, and air-dried. To release stain from the cells 100 μl of solubilization solution was added (1% N-lauroyl sarcosine, Sodium salt, Sigma L5125, in PBS), and plates were shaken gently for about 30 minutes. Optical density at 620 nm was measured on a microplate reader. Percent inhibition of cell growth was calculated relative to vehicle treated control wells. […]"}, "[2]": {"tested_on": "gastric tumor (N87) cell line", "assay": "Methylene blue growth inhibition assay, N87", "type": "cell-based", "settings": "Homo sapiens, 72 h, read-out: N87 IC50 uM Cell", "method": "as §1, with “The next day, compounds were diluted in DMEM containing 100 mg/ml gentamicin, at twice the final required concentration, from 10 mM stock solutions in DMSO. 100 ml/well of these dilutions were added to the 100 ml of media currently on the cell plates.” left out, “Cell biomass was estimated by staining cells with 100 μl per well methylene blue (Sigma M9140, 0.5% in 50:50 ethanol:water), and incubation at room temperature for at least 30 minutes. Stain was removed, and the plates rinsed under a gentle stream of water, and air-dried. To release stain from the cells 100 μl of solubilization solution was added (1% N-lauroyl sarcosine, Sodium salt, Sigma L5125, in PBS), and plates were shaken gently for about 30 minutes.” left out"}, "[3]": {"assay": "Slurry equilibration, relative physical stability of anhydrate and monohydrate crystal forms", "settings": "25° C.; for Equilibrium Form: 1:1 anhydrate/monohydrate slurry in MeOH/H2O"}, "[4]": {"assay": "Moisture sorption testing", "type": "physicochemical", "settings": "humidities e.g. 20–75% relative humidity (RH)", "method": "Approximately 12 mg of N-{3-Chloro-4-[(3-fluorobenzyl) oxy]phenyl}-6-[5-({[2-(methanesulphonyl)ethyl]amino}methyl)-2-furyl]-4-quinazolinamine ditosylate monohydrate salt prepared according to Example 10 was weighed into a sample pan of a moisture sorption apparatus (model number SGA-100, made by VTI). The sample was dried at 60° C. under a nitrogen stream until the weight loss was less than 0.015% in 5 minutes. The relative humidity (RH) was then increased (adsorption) to 5, 15, 25, 35, 45, 55, 65, 75, 85 and 95%—at each step, equilibrium was defined as a weight change of less than 0.015% in 5 minutes. The relative humidity was then decreased (desorption) to 90, 80, 70, 60, 50, 40, 30, and 20% with the same equilibrium condition. The sorption curve (y-axis: Weight—% change vs. x-axis: % RH) is depicted in FIG. 3(a).\nApproximately 15 mg of N-{3-Chloro-4-[(3-fluorobenzyl) oxy]phenyl}-6-[5-({[2-(methanesulphonyl)ethyl]amino}methyl)-2-furyl]-4-quinazolinamine di-HCl salt was weighed into a sample pan of a moisture sorption apparatus (model number SGA-100, made by VTI). The sample was dried at 60° C. under a nitrogen stream until the weight loss was less than 0.015% in 5 minutes. The relative humidity was then increased (adsorption) to 5, 15, 25, 35, 45, 55, 65, 75, 85 and 95%—at each step, equilibrium was defined as a weight change of less than 0.015% in 5 minutes. […]"}, "[5]": {"settings": "72 h, HN5 cells, 3 days, methylene blue"}},
  "note": "Where two headings read alike, the source gives them in different places.",
  "data": [
    {"smiles": "CS(=O)(=O)CCNCc1ccc(-c2ccc3ncnc(Nc4ccc(OCc5cccc(F)c5)c(Cl)c4)c3c2)o1", "note": "[Example 8, N-{3-Chloro-4-[(3-fluorobenzyl)oxy]phenyl}-6-[5-({[2-(methanesulphonyl)ethyl]amino}methyl)-2-furyl]-4-quinazolinamine ditosylate anhydrate]", "values": [
      {"measurement": "IC50", "setting": "[1]; HN5, 72 h", "result": "< 5", "unit": "µM"},
      {"measurement": "IC50", "setting": "[2]", "result": "< 5", "unit": "µM"}
    ]},
    {"smiles": "CS(=O)(=O)CCNCc1ccc(-c2ccc3ncnc(Nc4ccc(OCc5cccc(F)c5)c(Cl)c4)c3c2)o1", "note": "[Example 10, N-{3-Chloro-4-[(3-fluorobenzyl)oxy]phenyl}-6-[5-({[2-(methanesulphonyl)ethyl]amino}methyl)-2-furyl]-4-quinazolinamine ditosylate monohydrate]", "values": [
      {"measurement": "RH at which the monohydrate becomes the thermodynamically stable form", "setting": "[3]; slurry equilibration, remains stable up through 100% RH", "result": "7–15 % RH"}
    ]},
    {"smiles": "CS(=O)(=O)CCNCc1ccc(-c2ccc3ncnc(Nc4ccc(OCc5cccc(F)c5)c(Br)c4)c3c2)o1", "note": "[Example 12, (4-(3-Fluoro-benzyloxy)-3-bromophenyl)-(6-(5-((2-methanesulphonyl-ethylamino)-methyl)-furan-2-yl)quinazolin-4-yl)-amine Ditosylate]", "values": [
      {"measurement": "IC50", "setting": "[1]; [5]", "result": "< 5", "unit": "µM"}
    ]},
    {"smiles": "CS(=O)(=O)CCNCc1nc(-c2ccc3ncnc(Nc4ccc(OCc5cccc(F)c5)c(Cl)c4)c3c2)cs1", "note": "[Example 13, (4-(3-Fluoro-benzyloxy)-3-chlorophenyl)-(6-(2-((2-methanesulphonyl-ethylamino)-methyl)-thiazol-4-yl)quinazolin-4-yl)-amine ditosylate]", "values": [
      {"measurement": "IC50", "setting": "[1]; [5]", "result": "< 5", "unit": "µM"}
    ]},
    {"smiles": "CS(=O)(=O)CCNCc1ccc(-c2ccc3ncnc(Nc4ccc(OCc5cccc(F)c5)c(Cl)c4)c3c2)o1", "note": "[N-{3-Chloro-4-[(3-fluorobenzyl)oxy]phenyl}-6-[5-({[2-(methanesulphonyl)ethyl]amino}methyl)-2-furyl]-4-quinazolinamine ditosylate]", "values": [
      {"measurement": "Equilibrium Form", "setting": "[3]; water volume 0%, RH 0%", "result": "Anhydrate"},
      {"measurement": "Equilibrium Form", "setting": "[3]; water volume 2%, RH 7%", "result": "Anhydrate"},
      {"measurement": "Equilibrium Form", "setting": "[3]; water volume 5%, RH 15%", "result": "Monohydrate"},
      {"measurement": "Equilibrium Form", "setting": "[3]; water volume 10%, RH 26%", "result": "Monohydrate"},
      {"measurement": "Equilibrium Form", "setting": "[3]; water volume 20%, RH 43%", "result": "Monohydrate"},
      {"measurement": "Equilibrium Form", "setting": "[3]; water volume 40%, RH 66%", "result": "Monohydrate"},
      {"measurement": "Equilibrium Form", "setting": "[3]; water volume 60%, RH 80%", "result": "Monohydrate"},
      {"measurement": "Equilibrium Form", "setting": "[3]; water volume 80%, RH 91%", "result": "Monohydrate"},
      {"measurement": "Equilibrium Form", "setting": "[3]; water volume 90%, RH 95%", "result": "Monohydrate"},
      {"measurement": "Equilibrium Form", "setting": "[3]; water volume 100%, RH 100%", "result": "Monohydrate"}
    ]},
    {"smiles": "CS(=O)(=O)CCNCc1ccc(-c2ccc3ncnc(Nc4ccc(OCc5cccc(F)c5)c(Cl)c4)c3c2)o1.Cl.Cl", "note": "[di-HCl salt, N-{3-Chloro-4-[(3-fluorobenzyl)oxy]phenyl}-6-[5-({[2-(methanesulphonyl)ethyl]amino}methyl)-2-furyl]-4-quinazolinamine di-HCl salt]", "values": [
      {"measurement": "Water sorption", "setting": "[4]", "result": "sorbs very large amounts of water"}
    ]}
  ]
}
